Laboratory results as given in ChEMBL document CHEMBL1144976, “Biological activities of alpha-mangostin derivatives against acidic sphingomyelinase” (Bioorg Med Chem Lett, 2003).
pIC50: −log10 of the molar value.

Assays:
[1] = target: T1, Sphingomyelin phosphodiesterase (Homo sapiens, UniProt P17405); experiment: Inhibitory activity against Acid sphingomyelinase
T1 sequence (P17405 whole entry): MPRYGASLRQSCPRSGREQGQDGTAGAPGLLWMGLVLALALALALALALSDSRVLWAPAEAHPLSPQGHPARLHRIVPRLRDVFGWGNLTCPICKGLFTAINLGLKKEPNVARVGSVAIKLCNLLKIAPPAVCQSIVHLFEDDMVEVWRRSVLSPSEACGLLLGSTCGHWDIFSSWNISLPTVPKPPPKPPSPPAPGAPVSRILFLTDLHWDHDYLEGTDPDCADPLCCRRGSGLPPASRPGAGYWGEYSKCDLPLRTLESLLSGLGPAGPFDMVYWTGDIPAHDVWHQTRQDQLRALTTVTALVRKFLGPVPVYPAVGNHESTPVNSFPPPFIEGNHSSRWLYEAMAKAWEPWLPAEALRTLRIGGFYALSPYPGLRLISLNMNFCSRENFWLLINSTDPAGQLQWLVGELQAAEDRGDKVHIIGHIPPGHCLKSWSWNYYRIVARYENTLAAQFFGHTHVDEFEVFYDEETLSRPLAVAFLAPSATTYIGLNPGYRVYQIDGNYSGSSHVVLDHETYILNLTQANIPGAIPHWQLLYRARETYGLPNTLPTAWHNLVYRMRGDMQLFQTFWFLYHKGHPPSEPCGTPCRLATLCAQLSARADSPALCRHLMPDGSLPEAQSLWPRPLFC

[2] = target: T2, Sphingomyelin phosphodiesterase 2 (Homo sapiens, UniProt O60906); experiment: Inhibitory activity against NSMase (neutral sphingomyelinase)
T2 sequence (O60906 whole entry): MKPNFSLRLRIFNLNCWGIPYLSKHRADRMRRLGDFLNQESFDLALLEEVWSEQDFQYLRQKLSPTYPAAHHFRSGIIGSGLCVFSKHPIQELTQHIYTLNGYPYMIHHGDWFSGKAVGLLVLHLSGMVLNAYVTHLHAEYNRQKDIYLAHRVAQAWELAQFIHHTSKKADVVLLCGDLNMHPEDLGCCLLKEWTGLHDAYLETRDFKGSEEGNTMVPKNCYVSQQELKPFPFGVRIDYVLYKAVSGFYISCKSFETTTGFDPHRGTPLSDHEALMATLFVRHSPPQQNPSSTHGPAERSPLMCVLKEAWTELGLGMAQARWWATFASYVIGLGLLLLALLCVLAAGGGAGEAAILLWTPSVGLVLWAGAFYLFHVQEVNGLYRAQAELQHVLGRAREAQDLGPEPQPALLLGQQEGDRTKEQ

| SMILES | pIC50 [1] | pIC50 [2] |
| --- | --- | --- |
| COc1cc2c(=O)c3c(O)c(CC=C(C)C)c(O)cc3oc2cc1O | 4.00 | < 3.53 |
| COc1c(O)cc2oc3cc(O)cc(O)c3c(=O)c2c1CC=C(C)C | 4.81 | 4.59 |
| COc1c(O)cc2oc3cc(O)c(CC=C(C)C)c(O)c3c(=O)c2c1CC=C(C)C [MANGOSTIN] | 4.90 | 3.95 |

Continued, values first:

| pIC50 [1] | pIC50 [2] | SMILES |
| --- | --- | --- |
| 4.41 | 3.95 | COc1c(O)cc(O)c(C(=O)c2c(O)cc(O)c(CC=C(C)C)c2O)c1CC=C(C)C |
| 4.18 | 3.70 | COc1cc(C(=O)c2c(O)cc(O)c(CC=C(C)C)c2O)c(O)cc1O |
| 4.83 | 4.55 | COc1c(O)cc(O)c(C(=O)c2c(O)cc(O)cc2O)c1CC=C(C)C |
